From the NIST ThermoML archive (doi:10.1016/j.jct.2008.01.028)

Experiment: wn = mass fraction of the nth substance listed
Conditions: Liquid

CN(CCO)CCO [N-methyldiethanolamine] + O
Conditions | mass density [kg/m3]
298.31 K, 205 kPa, w1 = 0.3 | 1023.7
298.31 K, 506 kPa, w1 = 0.3 | 1023.8
298.31 K, 1006 kPa, w1 = 0.3 | 1024
298.31 K, 2006 kPa, w1 = 0.3 | 1024.3
298.32 K, 5003 kPa, w1 = 0.3 | 1025.5
298.33 K, 206 kPa, w1 = 0.15 | 1009.9
298.33 K, 508 kPa, w1 = 0.15 | 1010
298.33 K, 1008 kPa, w1 = 0.15 | 1010.2
298.33 K, 2008 kPa, w1 = 0.15 | 1010.6
298.34 K, 5006 kPa, w1 = 0.15 | 1011.9
